Assays:
HT1080 cell xenografts = assay: HT1080 xenografts in nude male mice, tumor mass; type: in vivo; conditions: 200 μl of 1 μM Casodex i.p. at alternate days, 4 weeks, vs vehicle
Protocol: FIG. 1: Casodex reduces the growth of human fibrosarcoma HT1080 xenografts. HT1080 xenografts were established in nude male mice as described in Methods. Tumors were treated with vehicle alone (ethanol), or the pure androgen antagonist, Casodex (Cx; at 1 μM; Sigma-Aldrich). Tumor mass was measured at the indicated times. Mean and SEM are shown. n represents the number of experiments.
(§1) HT1080 cells in 50% (v/v) Matrigel solution in phosphate-buffered saline (PBS; pH 7.4) were subcutaneously injected in the dorsal posterior region at 2.5×10^6 cells/male athymic mice (CD mice, Charles-River Italia) without hormone priming. Animals were randomly selected for the treatment with Casodex dissolved in 0.1% ethanol or vehicle alone for additional 4 weeks. Tumour volumes of HT1080 cell xeno-grafts were measured by a calliper and expressed as tumour mass (mm^3). For the treatment of each animal, 200 μl of 1 μM Casodex in 0.1% ethanol or the same amount of vehicle alone were intra-peritoneally administered at alternate days to the mice. No difference in body weight was detected between control mice or Casodex-treated mice.

[1] = Body weight of HT1080 xenograft mice; type: in vivo; conditions: Casodex-treated vs control mice
Protocol: as §1

Src = molecular target: T1, Src (Homo sapiens, UniProt P12931); assay: Src kinase assay in immune-complexes with enolase as substrate, EGF-stimulated HT1080 cells; type: cell-based; conditions: EGF 100 ng/ml, 10 μM Casodex, compared with 1 nM S1 peptide
T1 construct: lysates were immune-precipitated with the anti-Src MAb and Src activity in immune-complexes was assayed using enolase as a substrate; endogenous in cells; host or cells: HT1080 human fibrosarcoma cells
T1 sequence (P12931 whole entry): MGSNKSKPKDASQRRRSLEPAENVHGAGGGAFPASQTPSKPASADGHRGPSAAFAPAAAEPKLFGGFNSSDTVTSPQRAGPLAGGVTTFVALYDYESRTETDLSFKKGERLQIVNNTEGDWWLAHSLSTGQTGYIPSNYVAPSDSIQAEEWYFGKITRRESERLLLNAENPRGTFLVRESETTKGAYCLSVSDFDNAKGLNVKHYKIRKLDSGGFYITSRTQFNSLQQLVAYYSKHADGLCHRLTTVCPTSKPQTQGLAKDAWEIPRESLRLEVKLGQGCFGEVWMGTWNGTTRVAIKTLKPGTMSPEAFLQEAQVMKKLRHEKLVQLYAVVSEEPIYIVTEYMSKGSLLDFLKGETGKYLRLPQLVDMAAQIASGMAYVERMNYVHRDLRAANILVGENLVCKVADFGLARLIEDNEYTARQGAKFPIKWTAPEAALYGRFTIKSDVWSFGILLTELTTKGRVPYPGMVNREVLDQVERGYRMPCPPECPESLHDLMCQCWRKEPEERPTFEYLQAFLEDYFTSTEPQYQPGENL
Protocol: FIG. 3: Inhibition by S1 peptide of AR/Src complex, Src activation and DNA synthesis triggered by EGF in HT1080 cells. Quiescent HT1080 cells were used. The cells were left un-stimulated or stimulated for 10 min with EGF (at 100 ng/ml; Roche) in the absence or presence of S1 or Ss peptide (both at 1 nM). Casodex (at 10 μM) was used for comparison with the S1 peptide. The same concentrations of peptides and Casodex were used throughout the experiments. Upper section in A, the Western blot of HT1080 cell lysates with anti-EGFR antibody is shown. […] Lower section in A, lysates were immune-precipitated with anti EGFR Ab and proteins in immune-complexes were detected using antibodies against the indicated proteins. In B, lysates were immune-precipitated with the anti-Src MAb and Src activity in immune-complexes was assayed using enolase as a substrate. In C, cells on coverslips were left untreated or treated for 18 h with the indicated compounds. After in vivo pulse with BrdU (100 μM; Sigma), BrdU incorporation was analyzed by IF and expressed as % of total nuclei. Mean and SEM are shown. n represents the number of experiments.
Src tyrosine kinase was immune-precipitated, detected and assayed using enolase as a substrate (15). Src, EGF-R and tubulin were detected from cell lysates using appropriate antibodies (7). AR was immune-precipitated and detected as reported (3). […]

HT1080 cells [2] = assay: BrdU incorporation (DNA synthesis) in HT1080 cells; type: cell-based, human; conditions: EGF, Casodex 10 μM
Protocol: Androgen challenging of these cells neither induces AR nuclear translocation, nor enhances DNA synthesis while robustly increases cell motility. In A, quiescent HT1080 cells were transfected with 3416 or 3424 ARE-luc constructs with or without hAR expressing plasmid. Details of these procedures have been described in Methods. Cells were left un-stimulated or stimulated for 18 h with 10 nM R1881. The luciferase activity was assayed, normalized using beta-gal as an internal control, and expressed as fold induction. Means and SEM are shown; n represents the number of experiments. […] In B, quiescent HT1080 cells on coverslips were left untreated or treated for 60 min with 10 nM R1881. Cells were analysed by IF for AR (left images) or Hoechst (right images). Images are representative of three independent experiments. […] In C, BrdU incorporation in cells on coverslips was analysed and expressed as in FIG. 2. In D, the number of migrated cells was evaluated and expressed as relative increase. […]
FIG. 3: Inhibition by S1 peptide of AR/Src complex, Src activation and DNA synthesis triggered by EGF in HT1080 cells. […] Lower section in A, lysates were immune-precipitated with anti EGFR Ab and proteins in immune-complexes were detected using antibodies against the indicated proteins. […] After in vivo pulse with BrdU (100 μM; Sigma), BrdU incorporation was analyzed by IF and expressed as % of total nuclei. […]

MMP-9 = MMP-9 release from HT1080 cells (fluorescent AK411 kit); type: cell-based, human; conditions: 6 h, Casodex 10 μM
Protocol: (§2) FIG. 4: The S1 peptide inhibits EGF-stimulated migration and MMP-9 secretion in HT1080 cells. Quiescent HT1080 cells were used. In A, cells were left untreated or treated for 6 h with the indicated compounds. MMP-9 release was assayed as described in Methods. In B, cells were allowed to migrate for 6 h in Trans-well filters in the absence or presence of the indicated compounds. Migrated cells were stained and counted as reported in Methods. In A and B, data were expressed as relative increase. Mean and SEM is shown. n represents the number of experiments. In C, cells were wounded and then left unstimulated or stimulated for 6 h with the indicated compounds. Contrast-phase images are representative of 3 different experiments, each performed in duplicate.
(§3) BrdU incorporation, migration and wound healing analysis were done as described (3, 11). MMP-9 activity was assayed (12, 13), using the fluorescent AK411 kit (BIOMOL Res. Lab.).

HT1080 cells [3] = assay: Migration in Trans-well filters and wound healing of HT1080 cells; type: cell-based, human; conditions: 6 h, Casodex 10 μM
Protocol: as §2, §3

[4] = tested on: non-small cell lung tumor line xenografts; conditions: mice, reference 20; cited from earlier work
EGF receptor (EGFR) = molecular target: T2, EGF receptor (EGFR) (human, UniProt P00533 25-1210); assay: immune-precipitation with anti-EGFR antibody from EGF-stimulated HT1080 lysates, immunoblot
T2 construct: Endogenous protein of HT1080 cells
Protocol: Quiescent HT1080 cells were used. […] The same concentrations of peptides and Casodex were used throughout the experiments. […] In C, cells on coverslips were left untreated or treated for 18 h with the indicated compounds. After in vivo pulse with BrdU (100 μM; Sigma), BrdU incorporation was analyzed by IF and expressed as % of total nuclei. Mean and SEM are shown. n represents the number of experiments.
The ECL system (GE Healthcare) was used to reveal immune-reactive proteins.

CC(O)(CS(=O)(=O)c1ccc(F)cc1)C(=O)Nc1ccc(C#N)c(C(F)(F)F)c1 (centres unmarked) [Casodex, reference compound]
growth (tumor mass) of HT1080 xenografts (HT1080 cell xenografts): reduced | body weight [1]: No difference | EGF stimulation of Src activity (Src): comparable | EGF mitogenic effect (DNA synthesis) (HT1080 cells [2]): abolishes | EGF-stimulated MMP-9 secretion (MMP-9): inhibits | EGF-increased motility (HT1080 cells [3]): inhibited at a similar extent

C[C@]12CC[C@@H]3c4ccc(O)cc4C[C@@H](CCCCCCCCC[S+]([O-])CCCC(F)(F)C(F)(F)F)[C@H]3[C@@H]1CC[C@@H]2O (some centres unmarked) [ICI 182,780]
estrogen-stimulated growth of non-small cell lung tumor line xenografts [4]: blocks

B1: androgen receptor (AR) (receptor, human, UniProt P10275 1-920, looked up)
chain: MEVQLGLGRVYPRPPSKTYRGAFQNLFQSVREVIQNPGPRHPEAASAAPPGASLLLLQQQQQQQQQQQQQQQQQQQQQQQETSPRQQQQQQGEDGSPQAHRRGPTGYLVLDEEQQPSQPQSALECHPERGCVPEPGAAVAASKGLPQQLPAPPDEDDSAAPSTLSLLGPTFPGLSSCSADLKDILSEASTMQLLQQQQQEAVSEGSSSGRAREASGAPTSSKDNYLGGTSTISDNAKELCKAVSVSMGLGVEALEHLSPGEQLRGDCMYAPLLGVPPAVRPTPCAPLAECKGSLLDDSAGKSTEDTAEYSPFKGGYTKGLEGESLGCSGSAAAGSSGTLELPSTLSLYKSGALDEAAAYQSRDYYNFPLALAGPPPPPPPPHPHARIKLENPLDYGSAWAAAAAQCRYGDLASLHGAGAAGPGSGSPSAAASSSWHTLFTAEEGQLYGPCGGGGGGGGGGGGGGGGGGGGGGGEAGAVAPYGYTRPPQGLAGQESDFTAPDVWYPGGMVSRVPYPSPTCVKSEMGPWMDSYSGPYGDMRLETARDHVLPIDYYFPPQKTCLICGDEASGCHYGALTCGSCKVFFKRAAEGKQKYLCASRNDCTIDKFRRKNCPSCRLRKCYEAGMTLGARKLKKLGNLKLQEEGEASSTTSPTEETTQKLTVSHIEGYECQPIFLNVLEAIEPGVVCAGHDNNQPDSFAALLSSLNELGERQLVHVVKWAKALPGFRNLHVDDQMAVIQYSWMGLMVFAMGWRSFTNVNSRMLYFAPDLVFNEYRMHKSRMYSQCVRMRHLSQEFGWLQITPQEFLCMKALLLFSIIPVDGLKNQKFFDELRMNYIKELDRIIACKRKNPTSCSRRFYQLTKLLDSVQPIARELHQFTFDLLIKSHMVSVDFPEMMAEIISVQVPKILSGKVKPIYFHTQ
notes: Endogenous protein of HT1080 cells (co-immunoprecipitation from lysates)
binding result (EGF receptor (EGFR)): binds
